The test system of data set [1] is Y79 retinoblastoma cells. The data set can be described thus: Cancer cell proliferation, Y79. Format: cell-based. How it is done:
(§1) To determine the breadth of efficacy in cancers, we examined the efficacy of a range of TRPM7 inhibitors for their ability to inhibit cell proliferation in cancer cell lines. Representative figures are included as examples.
(§2) Cells (Table 1) were grown to 70% confluency, trypsinized, counted, and seeded in 96-well flat-bottom plates at a final concentration of 2.5×10^3-5.0×10^3 cells/well in growth media containing 5% FBS (Day 0). Other well sizes and cell densities were used successfully as well. Cells were allowed to incubate in growth media for 24 hours to allow for maximum adhesion. Treatment with the test agent began on Day 1 and continued for 72 hours either with or without retreatment. At the 72 hour time point, viable cell numbers are quantified by the CellTiter-Glo® cell viability assay as described above, or using standard MTT, SRB or BrDU assays. Experiments were repeated at least twice with the same concentrations to determine growth inhibitory activity.
(§3) Data Collection—For the cell proliferation studies, data from each experiment was collected and expressed as % Cell Growth using the following calculation: % Cell Growth=(ftest/fvehicle)×100 Where ftest is the luminescent signal of the tested sample, and fvehicle is the luminescence of the vehicle in which the drug is dissolved (or appropriate measure for the other viability/proliferation measures). Dose response graphs and IC50 values were generated using standard software using the following variable slope equation: […]

Data set [2] relates to HeLa cervical cancer cells. The data set can be described thus: Cancer cell proliferation, HeLa. Format: cell-based, human. The note with it: FIG. 79. On the procedure:
as §1, §2
(§4) Data Collection—For the cell proliferation studies, data from each experiment was collected and expressed as % Cell Growth using the following calculation: % Cell Growth=(ftest/fvehicle)×100 Where ftest is the luminescent signal of the tested sample, and fvehicle is the luminescence of the vehicle in which the drug is dissolved (or appropriate measure for the other viability/proliferation measures). […]

Data set [3] has as its system DMS456 lung cancer. The experiment in a line: Cancer cell proliferation, DMS456. Format: cell-based. The following applies: >20% inhibition at 48-96 hours, MTT, SRB, luminescence or BrDU. On the procedure:
as §1, §2, §4

Data set [4] has as its system H292 non small cell lung cancer. The data set can be described thus: Cancer cell proliferation, H292. The class given is cell-based. The following applies: for IC50: Homo sapiens. How it is done: as §1, §2, §3
For data set [5], the system named is RXF-393 renal. The experiment in a line: Cancer cell proliferation, RXF-393. Format: cell-based, human. The following applies: for IC50: Homo sapiens. How it is done:
as §1, §2, §3

For data set [6], the system named is Y79 retinoblastoma cells. The data set can be described thus: Y79 retinoblastoma cells seeded on cultured retinal explants (ex vivo). Format: cell-based. On the procedure: Retinal explants were surgically dissected and cultured by standard methods. One hundred thousand Y79 retinoblastoma cells were then seeded onto the retinas in culture and allowed to grow for 2 weeks on inserts in the presence or absence of 5 μM M6. Y79 cells were fluorescently labeled and intensity was counted (arbitrary fluorescence units). […] TRPM7 inhibitors may be useful in the reduction of tumor metastasis in addition to either reducing the proliferation or killing of cancer cells. FIG. 78 is a repetition of the experiment, observing the distribution of Y79 cells after 12 days of migration off the retina. The darker bars of each pair indicate fluorescence intensity of cells that have migrated off the retina.

Data set [7] is described as follows: in vivo. The following applies: mouse, mice, highest dose tested, read-out: maximum tolerated dose.
Data set [8] concerns H9c2 cardiomyocytes. The experiment in a line: Toxicity on H9c2 cardiomyocytes, PI uptake after 72 hours. Format: cell-based, rat. On the procedure: To differentiate between an anti-proliferative effect of the TRPM7 inhibitors and cellular toxicity, the compounds were added to various ‘non-cancerous’ cell lines at the same concentrations and the percentage of PI uptake was measured after 72 hours.

The target in data set [9] is T1, TRPM2 (Homo sapiens, UniProt O94759).
T1 construct: expressed in transfected cells; host or cells: HEK293
The experiment in a line: Agonist-induced Ca2+ changes in HEK293 cells transfected with TRPM2. The class given is cell-based. On the procedure:
(§5) To examine selectivity of a subset of these TRPM7 inhibitors, experiments were performed to determine whether TRPM7 antagonists cross-react with other ionic channels and receptors. […] From a therapeutic perspective, knowledge of cross-reactivity of candidate drugs could shed light on other ischemic mechanisms and raise awareness of potential side effects. M21 has no effect on voltage-sensitive Na+, and Ca2+ currents in cultured cortical neurons […] TRPM7-expressing HEK293 cells, but inhibits K+ currents by about 20% at membrane potentials of −10 mV. M21 had no effect on agonist-induced Ca2+ changes in HEK293 cells transfected with constructs for TRPM2, TRPM4, TRPM6, TRPV1, TRPC2 and TRPA1. M21 also has no effect on NMDA and AMPA receptor currents in cultured neurons. […] Similar experiments were performed with other TRPM7 inhibitors including M5 and M11.

For data set [10], the target named is T2, TRPM4 (Homo sapiens, UniProt Q8TD43).
T2 construct: expressed in transfected cells; host or cells: HEK293
T2 sequence (Q8TD43 whole entry, species assumed): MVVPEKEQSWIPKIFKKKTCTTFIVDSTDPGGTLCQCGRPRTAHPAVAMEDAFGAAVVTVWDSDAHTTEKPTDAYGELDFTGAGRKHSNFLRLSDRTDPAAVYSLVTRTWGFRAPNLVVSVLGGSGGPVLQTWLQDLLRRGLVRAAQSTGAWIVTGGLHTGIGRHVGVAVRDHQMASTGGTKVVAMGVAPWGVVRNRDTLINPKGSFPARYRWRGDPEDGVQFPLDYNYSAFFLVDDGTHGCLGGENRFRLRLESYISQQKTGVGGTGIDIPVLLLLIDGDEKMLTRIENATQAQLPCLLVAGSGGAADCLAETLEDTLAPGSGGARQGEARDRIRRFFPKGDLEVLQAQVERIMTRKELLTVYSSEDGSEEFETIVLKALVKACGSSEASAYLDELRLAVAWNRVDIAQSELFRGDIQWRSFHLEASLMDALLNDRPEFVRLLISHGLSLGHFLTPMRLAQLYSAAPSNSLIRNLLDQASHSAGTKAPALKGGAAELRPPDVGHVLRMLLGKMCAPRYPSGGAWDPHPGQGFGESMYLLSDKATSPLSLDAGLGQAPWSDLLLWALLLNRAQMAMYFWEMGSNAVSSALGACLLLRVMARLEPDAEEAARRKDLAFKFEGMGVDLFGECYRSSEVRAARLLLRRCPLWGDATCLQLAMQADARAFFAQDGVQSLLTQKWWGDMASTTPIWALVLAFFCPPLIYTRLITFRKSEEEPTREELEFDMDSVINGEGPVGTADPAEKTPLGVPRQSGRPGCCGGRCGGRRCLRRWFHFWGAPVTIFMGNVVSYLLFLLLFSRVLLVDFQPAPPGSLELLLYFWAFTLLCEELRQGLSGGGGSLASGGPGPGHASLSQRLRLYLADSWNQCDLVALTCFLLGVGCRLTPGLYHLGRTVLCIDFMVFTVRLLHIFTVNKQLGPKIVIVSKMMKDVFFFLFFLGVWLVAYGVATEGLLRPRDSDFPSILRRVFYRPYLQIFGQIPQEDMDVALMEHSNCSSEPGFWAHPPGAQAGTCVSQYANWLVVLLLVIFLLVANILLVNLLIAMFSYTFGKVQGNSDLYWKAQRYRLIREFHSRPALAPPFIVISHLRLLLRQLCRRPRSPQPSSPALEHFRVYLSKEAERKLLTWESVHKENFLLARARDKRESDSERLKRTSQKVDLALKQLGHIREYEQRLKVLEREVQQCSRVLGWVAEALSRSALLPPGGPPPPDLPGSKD
The data set can be described thus: Agonist-induced Ca2+ changes in HEK293 cells transfected with TRPM4. The class given is cell-based. On the procedure: as §5

For data set [11], the target named is T3, TRPM6 (Homo sapiens, UniProt Q9BX84).
T3 construct: expressed in transfected cells; host or cells: HEK293
The data set can be described thus: Agonist-induced Ca2+ changes in HEK293 cells transfected with TRPM6. The class given is cell-based. How it is done:
as §5

The target in data set [12] is T4, TRPV1 (Homo sapiens, UniProt Q8NER1).
T4 construct: expressed in transfected cells; host or cells: HEK293
T4 sequence (Q8NER1 whole entry, species assumed): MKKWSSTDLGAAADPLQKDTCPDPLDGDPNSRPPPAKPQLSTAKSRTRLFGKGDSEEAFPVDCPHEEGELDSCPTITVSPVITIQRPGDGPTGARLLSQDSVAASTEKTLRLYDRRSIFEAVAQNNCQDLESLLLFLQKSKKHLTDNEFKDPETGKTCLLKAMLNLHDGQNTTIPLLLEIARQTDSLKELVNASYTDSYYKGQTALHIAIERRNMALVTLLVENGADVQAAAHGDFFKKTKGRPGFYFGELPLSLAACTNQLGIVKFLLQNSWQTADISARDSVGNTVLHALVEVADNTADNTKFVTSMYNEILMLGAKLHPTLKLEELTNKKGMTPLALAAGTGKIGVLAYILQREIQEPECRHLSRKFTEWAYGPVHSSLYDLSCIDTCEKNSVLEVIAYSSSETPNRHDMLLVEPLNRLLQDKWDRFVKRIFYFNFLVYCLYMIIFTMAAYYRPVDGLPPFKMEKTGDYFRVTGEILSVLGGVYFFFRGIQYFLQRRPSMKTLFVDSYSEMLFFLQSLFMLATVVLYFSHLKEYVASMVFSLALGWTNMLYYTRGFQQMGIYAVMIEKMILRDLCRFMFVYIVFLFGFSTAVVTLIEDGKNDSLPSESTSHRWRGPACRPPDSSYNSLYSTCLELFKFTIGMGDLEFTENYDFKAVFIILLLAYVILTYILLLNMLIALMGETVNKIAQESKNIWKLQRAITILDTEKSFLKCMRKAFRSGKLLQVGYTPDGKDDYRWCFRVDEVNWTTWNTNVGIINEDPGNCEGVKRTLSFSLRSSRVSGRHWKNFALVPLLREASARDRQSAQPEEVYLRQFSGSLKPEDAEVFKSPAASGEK
The data set can be described thus: Agonist-induced Ca2+ changes in HEK293 cells transfected with TRPV1. The class given is cell-based. How it is done: as §5

For data set [13], the target named is T5, TRPA1 (Homo sapiens, UniProt O75762).
T5 construct: expressed in transfected cells; host or cells: HEK293
T5 sequence (O75762 whole entry, species assumed): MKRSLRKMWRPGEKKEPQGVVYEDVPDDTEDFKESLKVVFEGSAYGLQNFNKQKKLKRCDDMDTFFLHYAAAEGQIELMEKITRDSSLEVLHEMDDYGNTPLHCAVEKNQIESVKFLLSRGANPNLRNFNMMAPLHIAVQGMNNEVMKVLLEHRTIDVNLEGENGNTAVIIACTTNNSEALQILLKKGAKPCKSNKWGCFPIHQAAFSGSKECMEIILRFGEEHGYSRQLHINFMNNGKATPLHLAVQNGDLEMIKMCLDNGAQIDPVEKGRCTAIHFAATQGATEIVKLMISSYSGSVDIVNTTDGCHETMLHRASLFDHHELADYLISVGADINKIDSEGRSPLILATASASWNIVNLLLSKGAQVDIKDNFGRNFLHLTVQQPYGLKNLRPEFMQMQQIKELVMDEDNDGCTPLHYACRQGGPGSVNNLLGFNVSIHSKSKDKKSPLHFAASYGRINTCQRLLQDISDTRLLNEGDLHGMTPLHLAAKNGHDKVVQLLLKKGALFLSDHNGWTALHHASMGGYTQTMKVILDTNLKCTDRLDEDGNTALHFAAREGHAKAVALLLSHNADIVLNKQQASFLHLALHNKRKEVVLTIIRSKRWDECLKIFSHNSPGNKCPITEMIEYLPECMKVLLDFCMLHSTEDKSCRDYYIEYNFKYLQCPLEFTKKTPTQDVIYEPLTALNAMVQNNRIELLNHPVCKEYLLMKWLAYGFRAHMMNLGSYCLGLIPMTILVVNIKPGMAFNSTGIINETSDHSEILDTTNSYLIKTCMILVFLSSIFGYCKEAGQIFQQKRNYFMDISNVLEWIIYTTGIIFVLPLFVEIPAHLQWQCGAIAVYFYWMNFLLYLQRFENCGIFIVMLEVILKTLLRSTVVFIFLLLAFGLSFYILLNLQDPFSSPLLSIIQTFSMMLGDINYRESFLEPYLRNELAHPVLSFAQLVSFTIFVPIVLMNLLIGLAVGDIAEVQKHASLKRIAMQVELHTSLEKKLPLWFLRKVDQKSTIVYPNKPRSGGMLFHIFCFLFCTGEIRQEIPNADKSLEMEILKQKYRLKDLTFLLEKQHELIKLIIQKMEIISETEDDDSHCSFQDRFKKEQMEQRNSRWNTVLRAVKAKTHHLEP
The data set can be described thus: Agonist-induced Ca2+ changes in HEK293 cells transfected with TRPA1. The class given is cell-based. On the procedure:
as §5

For data set [14], the system named is NMDA receptor. The data set can be described thus: NMDA receptor currents in cultured neurons. The class given is cell-based. On the procedure:
as §5

Data set [15] deals with AMPA receptor. The experiment in a line: AMPA receptor currents in cultured neurons. The class given is cell-based. How it is done:
as §5

The test system of data set [16] is LAD coronary artery ligation. The data set can be described thus: Mouse model of permanent LAD coronary artery ligation (myocardial infarction). Format: in vivo. The note with it: single intravenous dose within 15 minutes of LAD occlusion.
Data set [17] deals with raised intraocular pressure (IOP). The data set can be described thus: Raised intraocular pressure model of acute glaucoma in rats. Format: in vivo, rat. The note with it: intraocular injection, 80 mm Hg 1 hour, 7-14 days. On the procedure: We next tested whether direct intraocular injection of M21 could reduce retinal damage evoked by raising the intraocular pressure (IOP) in rats (80 mm Hg 1 hour; Morrison J C. Elevated intraocular pressure and optic nerve injury models in the rat. J Glaucoma. 2005; 14:315-317). M21 was microinjected into the vitreous humor directly, to control for any blood-brain-barrier penetration issues. […] The compounds of this invention can be used for the treatment of retinal disorders. Preferably these compounds are delivered orally, as an injection (intravenous, intraocular), or administered topically. This model of glaucoma can be used to assess the different routes of administration for these compounds

In data set [18] the target is TRPM7 (Mus musculus, UniProt Q923J1). The experiment in a line: IC50 for TRPM7 (assay not stated). The arrangement: expressed in transfected cells; host or cells: HEK293 cells, tet-induced TRPM7.
Chain of TRPM7 (Q923J1 whole entry): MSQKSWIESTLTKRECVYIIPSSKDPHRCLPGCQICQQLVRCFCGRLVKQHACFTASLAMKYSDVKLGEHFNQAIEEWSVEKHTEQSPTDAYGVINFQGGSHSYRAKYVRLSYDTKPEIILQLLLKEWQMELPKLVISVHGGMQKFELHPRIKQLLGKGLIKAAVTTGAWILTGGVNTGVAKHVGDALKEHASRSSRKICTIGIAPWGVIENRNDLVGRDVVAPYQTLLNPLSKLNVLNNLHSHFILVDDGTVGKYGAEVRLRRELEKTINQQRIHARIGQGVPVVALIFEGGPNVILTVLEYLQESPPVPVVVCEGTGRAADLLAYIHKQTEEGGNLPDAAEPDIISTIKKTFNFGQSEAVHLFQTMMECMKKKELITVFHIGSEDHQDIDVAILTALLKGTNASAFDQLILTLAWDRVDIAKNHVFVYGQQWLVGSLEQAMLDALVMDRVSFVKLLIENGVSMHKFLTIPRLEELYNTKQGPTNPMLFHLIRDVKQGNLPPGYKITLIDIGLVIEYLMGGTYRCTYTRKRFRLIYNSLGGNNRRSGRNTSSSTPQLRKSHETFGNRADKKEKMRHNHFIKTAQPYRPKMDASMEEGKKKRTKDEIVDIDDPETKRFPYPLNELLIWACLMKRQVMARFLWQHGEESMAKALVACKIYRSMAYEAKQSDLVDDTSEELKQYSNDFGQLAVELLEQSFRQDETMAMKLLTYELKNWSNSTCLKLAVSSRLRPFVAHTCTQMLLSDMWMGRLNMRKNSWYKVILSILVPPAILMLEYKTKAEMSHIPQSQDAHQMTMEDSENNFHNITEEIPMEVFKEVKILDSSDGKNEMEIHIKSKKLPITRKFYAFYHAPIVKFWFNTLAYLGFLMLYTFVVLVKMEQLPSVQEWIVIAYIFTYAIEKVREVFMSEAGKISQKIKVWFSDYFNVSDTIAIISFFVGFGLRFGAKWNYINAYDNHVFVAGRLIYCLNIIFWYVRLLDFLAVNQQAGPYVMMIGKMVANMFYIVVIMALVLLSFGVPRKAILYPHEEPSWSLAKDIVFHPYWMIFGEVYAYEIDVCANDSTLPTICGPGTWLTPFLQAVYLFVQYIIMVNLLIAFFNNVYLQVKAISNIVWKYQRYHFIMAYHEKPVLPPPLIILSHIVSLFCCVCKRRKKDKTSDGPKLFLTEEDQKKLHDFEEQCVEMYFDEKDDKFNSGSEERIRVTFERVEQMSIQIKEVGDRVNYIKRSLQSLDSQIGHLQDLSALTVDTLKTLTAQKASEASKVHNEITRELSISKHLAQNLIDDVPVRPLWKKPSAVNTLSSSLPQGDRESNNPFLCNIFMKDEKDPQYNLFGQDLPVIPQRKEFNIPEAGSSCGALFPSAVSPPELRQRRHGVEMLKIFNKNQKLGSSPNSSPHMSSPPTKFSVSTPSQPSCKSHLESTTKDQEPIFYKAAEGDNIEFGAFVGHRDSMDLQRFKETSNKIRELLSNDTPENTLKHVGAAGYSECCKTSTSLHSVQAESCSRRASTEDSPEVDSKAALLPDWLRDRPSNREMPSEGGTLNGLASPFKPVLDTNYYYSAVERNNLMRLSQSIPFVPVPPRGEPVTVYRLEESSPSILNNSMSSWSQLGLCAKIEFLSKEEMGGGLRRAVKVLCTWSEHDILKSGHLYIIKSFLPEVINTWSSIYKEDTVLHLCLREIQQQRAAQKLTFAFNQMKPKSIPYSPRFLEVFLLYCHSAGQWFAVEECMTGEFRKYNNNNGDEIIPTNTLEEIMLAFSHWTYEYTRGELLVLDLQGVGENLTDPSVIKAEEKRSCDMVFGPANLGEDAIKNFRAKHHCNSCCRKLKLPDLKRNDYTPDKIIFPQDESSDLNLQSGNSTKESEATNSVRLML

Each structure is given as a SMILES string. Where two headings read alike, the source gives them in different places.

For orientation: IC50 means the concentration that inhibits the measured activity by half.

For `COc1cc2c(cc1OC)C(c1sc3ccccc3c1Cl)=NCC2` [Compound M6], the concentration for half-maximal inhibition (IC50) came to 36.3 µM in data set [1] (72 h, Y79, Exp 1, 72 hours, read-out: IC50); 38.6 µM in [1] (72 h, Y79, Exp 2, 72 hours, read-out: IC50); 37.5 µM in data set [1] (Y79, mean of Exp 1 and Exp 2, read-out: Mean IC50); 18.5 µM in [4] (NCI-H292, 72 h, H292, Exp 1, 72 hours, read-out: IC50); 15.9 µM in data set [4] (NCI-H292, 72 h, H292, Exp 2, 72 hours, read-out: IC50); 17.2 µM in data set [4] (NCI-H292, H292, mean of Exp 1 and Exp 2, read-out: Mean IC50). For the same molecule, the IC50 in [5] (RXF 393, 72 h, RXF393, Exp 1, 72 hours, read-out: IC50) is 5.3 µM; in [5] (RXF 393, 72 h, RXF393, Exp 2, 72 hours, read-out: IC50) it was 8.1 µM; in [5] (RXF 393, RXF393, mean of Exp 1 and Exp 2, read-out: Mean IC50), 6.7 µM. The “death of cancer cells by MTT assay” value in data set [1] (Y79, 1-7.5 μM, 48-72 hours) is listed as “resulted in the death of the cancer cells”. The “proliferation (BrDU incorporation)” value in data set [2] was “significantly reduce proliferation”. In addition, the “Demonstrated Reduction of Proliferation at or below 10 μM Inhibitor concentration” value is reported as “DMS456 lung cancer” in data set [3]; “H292 non small cell lung cancer” in data set [4] (H292, >20% inhibition at 48-96 hours, MTT, SRB, luminescence or BrDU); “RXF-393 renal” in [5] (RXF-393, >20% inhibition at 48-96 hours, MTT, SRB, luminescence or BrDU). Moreover, the “fluorescence of cells migrated off the retinal explant” value in data set [6] (1 μM, 12 days, FIG. 78) is “significantly lower Y79 fluorescence off of the retinal explant”. For the same molecule, in data set [6] (5 μM, 2 weeks), the “amount of Y79 cells on cultured retinas (fluorescence)” value is on record as “reduce the amount of Y79 cells”. In data set [6] (5 μM, 2 weeks, FIG. 77 panel B), the “ability of Y79 cells to migrate off of the retina” value is “significantly reduced the ability of Y79 cells to migrate off of the retina”. Moreover, the MTD in data set [7] was at least 20 mg/kg.

On to `O=C(Nc1ccc(F)cc1)C(Sc1ccc(Cl)cc1)c1ccccc1` (stereo not shown) [Compound M11], for which the “toxicity (PI uptake)” value is “No toxicity” in data set [8] (5 μM) and “slight toxicity” in data set [8] (10 μM).

Turning to `Cc1c(Cc2ccc(Cl)c(Cl)c2)c(=O)oc2cc(O)ccc12` [Compound M21], the “effect on agonist-induced Ca2+ changes” value in data set [9], in [10], in [11], in data set [12] and in data set [13] was “no effect” each time. Moreover, the “effect on NMDA receptor currents” value in data set [14] is “no effect”. For the same molecule, the “effect on AMPA receptor currents” value in data set [15] is on record as “no effect”. Further, in [16], the “number of cells exhibiting DNA fragmentation (TUNEL)” value is “significantly reduced the number of cells exhibiting DNA fragmentation”. In [16] (24 h), the “infarct volume (TTC)” value is “significantly reduced infarct volume”. In data set [17], the “retinal damage (histology)” value is on record as “significant reduction in retinal damage”. Further, the IC50 in data set [18] lay within 1 to 2 µM.

(Values after US8680137B2, “Agents and methods for treating ischemic and other diseases” (Nono Inc., priority 2009, dated 2014).)
